Values of other authors in patent publication US4256737A, “Long acting depot injectable formulations for LH-RH analogues” (Syntex (U.S.A.) Inc., priority 1979, dated 1981).

Details: background statement

Substance: (pyro)Glu-His-Trp-Ser-Tyr-Gly-Leu-Arg-Pro-Gly-NH2 [natural LH-RH]
- biological halflife: 1-2 hours
